# According to patent US9526737B2, “Oxysterols for activation of hedgehog signaling, osteoinduction, antiadipogenesis, and Wnt signaling” (THE REGENTS OF THE UNIVERSITY OF CALIFORNIA, priority 2007, dated 2016):
# What was measured:
# Assay type in all cases: cell-based
# [1] = system: hedgehog signaling pathway; assay: Hedgehog signaling pathway activation (8X-Gli reporter, Gli 1 and Patched Q-RT-PCR, cyclopamine inhibition); conditions: M2 cells
# Method: M2-10B4 bone marrow stromal cells were transfected with an 8XGli luciferase reporter or the empty vector (pGL3b). Cells were subsequently treated with control vehicle, 5 μM Oxy49, or 400 ng/ml recombinant human sonic hedgehog (Shh) as positive control. After 48 hours of treatments, reporter luciferase activity was measured and normalized to Renilla luciferase activity (See FIG. 14). […] M2-10B4 bone marrow stromal cells were transfected with an 8XGli luciferase reporter or the empty vector (pGL3b). Cells were subsequently treated with control vehicle, 5 μM Oxy34, or 400 ng/ml recombinant human sonic hedgehog (Shh) as positive control. After 48 hours of treatments, reporter luciferase activity was measured and normalized to Renilla luciferase activity (See FIG. 15). […] After 48 hours of treatments, mRNA was extracted from cells and analyzed by Q-RT-PCR for expression of hedgehog target genes Gli 1 and Patched (See FIGS. 16A and 16B). […] Luciferase reporter activity using a reporter construct with 8X-Gli binding sites • 2. Q-RT-PCR analysis of the induction of hedgehog pathway target gene expression Gli 1 and Patched • 3.
# [2] = system: Cyclin D1 mRNA expression; assay: Q-RT-PCR for Cyclin D1 mRNA expression; conditions: M2 cells
# Method: (§1) Total RNA was extracted with the RNA isolation kit from Stratagene (La Jolla, Calif.) according to the manufacturer's instructions. RNA was DNase-treated using the DNA-free kit from Ambion, Inc. (Austin, Tex.). 3 μg of RNA was reverse-transcribed using reverse transcriptase from Stratagene (La Jolla, Calif.) to make single stranded cDNA. The cDNAs were mixed with Qi SYBR Green Supermix from Bio-Rad Laboratories (Hercules, Calif.) for quantitative RT-PCR using a Bio-Rad I-cycler IQ quantitative thermocycler. All PCR samples were prepared in triplicate or quadruplicate. Each sample was added to duplicate wells of a 96-well plate. After 40 cycles of PCR, melt curves were analyzed in order to ensure primer specificity, and the identity of all PCR products were verified by sequencing and comparing with the complete mRNA sequence obtained from PubMed's GenBank. Fold changes in gene expression were calculated using the ΔΔCt method (14). All primers were designed using the Beacon Designer software from Bio-Rad Laboratories (Hercules, Calif.). […]
# M2 cells were treated with 5 μM SS, 200 ng/ml Shh, or control vehicle for 8 or 48 h. RNA was isolated and analyzed by Q-RT-PCR for Cyclin D1 expression (See FIGS. 4C and 4D).
# Axin2 mRNA expression = assay: Q-RT-PCR for Axin2 mRNA expression; conditions: M2 cells, 8 and 48 hours; 5 μM SS, 200 ng/ml Shh, 40 mM LiCl
# Method: as §1
# M2 cells were treated with 5 μM SS, 200 ng/ml Shh, 40 mM LiCl, or control vehicle for 8 or 48 h. RNA was isolated and analyzed by Q-RT-PCR for Axing expression (See FIGS. 4A and 4B).
# [3] = system: TCF/Lef transcriptional activity; assay: TCF/Lef luciferase reporter assay (TBE4-luc); conditions: M2 cells, 24 hours; 5 μM SS, 200 ng/ml Shh or 40 mM LiCl
# Method: (§2) M2-10B4 cells at 70% confluence were transfected for 24 hours using FuGENE 6 Transfection Reagent (Roche Applied Science, Indianapolis, Ind.) according to manufacturer's instructions. The wild-type and mutant TCF/LEF binding site driven luciferase constructs (TBE4-luc and TBE4-luc-mut, repectively) were generous gifts from Dr. Baruch Frenkel (University of Southern California, Los Angeles, Calif.), and the Cyclin D1 promoter element-driven luciferase construct (Cyclin D1-luc) was a generous gift from Dr. Fanxin Long (Washington University, St. Louis, Mo.). Firefly luciferase values were normalized to Renilla luciferase activity and pEGFP-NI was used to evaluate transfection efficiency. Cells were then treated for 24, 48, or 72 hours with test agents before measuring luciferase activity using the Dual-Luciferase Reporter 1000 Assay System (Promega, Madison, Wis.) according to the manufacturer's instructions.
# M2 cells were transfected with a luciferase reporter driven by 4 wild-type or mutant TCF/Lef DNA binding sites (TBE4-luc and TBE4-luc-mut, respectively) and analyzed for their response to 5 μM SS, 200 ng/ml Shh, 40 mM LiCl, or control vehicle after 24 h of treatment (see FIG. 3A).
# [4] = system: TCF/Lef transcriptional activity (Cyclin D1 promoter element); assay: Cyclin D1 promoter element luciferase reporter assay (Cyclin D1-luc); conditions: M2 cells, 24 hours; 5 μM SS or 40 mM LiCl
# Method: as §2
# M2 cells were transfected with a luciferase reporter driven by a Cyclin D1 promoter element (Cyclin D1-luc) and analyzed for their response to 5 μM SS, 40 mM LiCl, or control vehicle after 24 h of treatment (see FIG. 3B).
Compound,Inhibition of oxysterol-induced hedgehog pathway activation [1],Cyclin D1 mRNA expression ([2]; 8 hours),Cyclin D1 mRNA expression ([2]; 48 hours),Axin2 mRNA expression (Axin2 mRNA expression),TCF/Lef reporter activity compared to untreated control cells [3],Cyclin D1 promoter element TCF/Lef reporter activity [4]
"O=c1cc(N2CCOCC2)oc2c(-c3ccccc3)cccc12 [LY, LY 294002]",did not inhibit,–,–,–,–,–
"[Cl-].[Li+] [LiCl, lithium chloride]",–,did not induce,inhibited its baseline expression,induced its expression at both time points,significantly induced,activated
